What was measured:
RAW264.7 cells = assay: Anti-inflammatory effect: nitric oxide (NO) formation inhibition, GRIESS method, LPS stimulus; assay type: cell-based, mouse; conditions: RAW264.7, 10 ppm, LPS 1 μg, 24 hours
Protocol: An anti-inflammatory effect was confirmed with respect to above Examples 1 to 4 and Comparative Examples 1 to 8.
In order to confirm the anti-inflammatory effect and skin trouble alleviation effect of Examples 1 to 4 and Comparative Examples 1 to 8, an experiment on nitric oxide (NO) formation inhibitory power was performed with a GRIESS method using RAW264.7 cell lines (ATCC number: CRL-2278).
Specifically, RAW264.7 cells, which are mouse macrophages, were subcultured several times and placed in a 24-well plate so that 3×10^5 cells were put into each well, and then incubated for 24 hours. Then, Examples 1 to 4 and Comparative Examples 1 to 8 were replaced with a diluted cell medium at a concentration of 10 ppm. At this time, L-NMMA (L-NG-Monomethylarginine), a NO-production inhibitor, was treated together as a positive control and incubated for 30 minutes, and then 1 μg of lipopolysaccharide (LPS) was treated as a stimulus and cultured for 24 hours. 100 μl of the supernatant was transferred to a 96-well plate and reacted at room temperature for 10 minutes with the addition of 100 μl of GRIESS solution, so as to measure the absorbance at 540 nm, thereby determining an NO inhibitory effect of the compound of Formula 1, and the results are shown in table 4 below.

[1] = Antioxidant effect: free radical scavenging by DPPH method; assay type: biochemical; conditions: 30 minutes, 517 nm, based on vitamin C 0.1% as 100%
Protocol: An antioxidant effect experiment was performed to confirm an antioxidant effect of Examples 1 to 4 and Comparative Examples 1 to 8 through a free radical scavenging effect using a DPPH method according to a known method. 100 μl of Examples 1 to 4 and Comparative Examples 1 to 8 were dispensed into 96 microplates, and 10 μl of a 2,2-diphenyl-1-picrylhydrazyl (DPPH) solution dissolved in ethanol to reach 1 mM was added thereto. After a reaction in 30 minutes later at room temperature, absorbance was measured at 517 nm to measure a free radical scavenging activity. An experiment was performed with vitamin C at a concentration of 0.1% as a control group along with the compositions of Examples 1 to 4 and Comparative Examples 1 to 8. The results are shown in table 3 based on the free radical scavenging effect of vitamin C as 100%.

Row | SMILES | NO production inhibition rate (%) (RAW264.7 cells) | Free radical scavenging effect (%) [1] [%]
1 | CNC(=N)NCCC[C@H](N)C(=O)O [L-NMMA, L-NG-Monomethylarginine] | 39.14 | –
2 | O=C1O[C@H]([C@@H](O)CO)C(O)=C1O [vitamin C] | – | 100
